According to patent publication US20130171217A1, “ENZYMATIC PERACID GENERATION FOR USE IN SKIN CARE PRODUCTS” (E I DU PONT DE NEMOURS AND COMPANY, priority 2010, published 2013):

Columns and labels:
[1] = Wool removal from sheep pelt strips by PAA solutions; conditions: 15 wt % urea, pH 8
Method: To evaluate the efficacy of PAA solution on removing the wool from a sheep pelt sample, the following experiment was carried out. Pelt strips (0.5 cm×3 cm) were cut and the wool fibers were trimmed to a length of 0.2 cm. Each solution (50 μL) was applied on separated pelt strip (half of the length treated and half of the length untreated). The pelt strip samples were allowed to stand for 10 min at room temperature ([…]). Excess liquid was removed by blotting and the samples were put inside a plastic tube for 30 min for further treatment and then washed with 50 μL of a 2% sodium lauryl ether sulfate (SLES) solution, rinsed with tap water (excess liquid was removed by blotting), and then dried under N2. The treatment was repeated until the wool fibers in treated area were all removed. Three different solutions were tested using this protocol, a) 0.6 wt % PAA, 15 wt % urea, with 0.5 wt % SLES in a pH 8, 50 mM phosphate buffer; b) 0.6 wt % PAA and 15 wt % urea in a pH 8, 50 mM phosphate buffer; c) 0.2 wt % PAA, 15 wt % urea, 0.5 wt % SLES in a pH 8, 50 mM phosphate buffer. At the 19th, 23rd, 24th application, respectively, the wool fibers on the samples treated with solution (a), (b) and (c) were completely removed. The addition of 0.5 wt % SLES seems to accelerate the wool removal process.

[2] = Single fiber tensile strength test of hair after chemical treatment (NAIR, PAA, bleach creams, reductive solution, triacetin/H2O2)
Source text: Since the quality and diameter of the hair samples are variables, hair sample pre-selection is used to achieve reasonable standard deviation in the tensile strength test. […] To prevent contamination, gloves were used while handing hair fiber samples.
Plastic transfer pipette tubes were cut to 2^7/8 inches (approximately 7.3 cm) by cutting off the bulb end. A hair bundle with 7 to 20 hair strands was carefully inserted into the tube keeping the hair fibers together by taping one end together and attached to the outside top of the wider end of the transfer pipette. This also helped to keep the strands in place once in the tube.
Solution/cream (200 μL) was added to a 2.0-mL microfuge tube. The hair sample was placed into tube by inserting the smaller end of transfer pipette inside tube with hair protruding out of the tip such that the hair strands formed a U shape and the free end of the strands hung loosely outside of the microfuge tube.
After certain application, hair samples were dried and equilibrated in the temperature and humidity control room for at least 12 hr, preferably 24 hr, before tensile strength test.
(§1) Hair samples were cut into pieces 4-inches in length. The denier number (liner mass density) of each hair fiber was measured by Textechno Vibromat Instrument (Textechno Herbert Stein GmbH & Co. KG; Germany). The hair fibers were tested according to ASTM D 3822-01 (“Tensile Properties of Single Textile Fibers”; ASTM International, West Conshohocken, Pa., 2001), on an Instron testing system (Instron Model 1122 Tester; Instron, Mass.) at about 70° F. (approximately 21° C.) and 65% relative humidity. The treated area of the hair sample was placed in the middle of the gauge and both ends were gripped on the test heads. Both fiber ends were attached on a piece of tape, respectively, for easy handling and gripping on the test heads. The test used 2-inch (5.1 cm) gauge length, […], and 1.2 inch/min (3 cm/min) pulling rate. The force-strain curve of the fiber was recorded during the test. The tenacity at maximum (gf/den) was calculated by dividing maximum force (gf) by denier number (den). Note that (gf/den)/11.33=Newtons/tex (N/tex).
Tenacity at maximum (tensile strength) of each hair sample was used to compare the integrity of the hair sample. A lower value of the tenacity at maximum is indicative of an improved weakening efficacy. A commercial depilatory cream, NAIR® (an alkali/potassium thioglycolate-based hair removal product from Church and Dwight Co., Inc., Princeton, N.J.), was used to set a target level for hair weakening. Based on the NAIR® product instruction, the recommended treatment time is 3 min to 10 min. Therefore, the tenacity at maximum of a hair sample treated with NAIR® between 3 min to 10 min was used to determine the target level. During hair treatment, about 200 μL of NAIR® cream was added to a 2-mL microfuge tube and hair samples were soaked in the cream for 3, 5 and 10 min. Hair samples were then rinsed with tape water to remove all the cream and then were dried under a stream of N2. […] Therefore, the desired level of hair weakening efficacy was targeted in the range from 0.8 gf/den to 1.3 gf/den under similar testing conditions.
Peracetic acid was added in 50 mM phosphate buffer to prepare solutions with different PAA concentrations at pH 6 and pH 8. A PAA solution (200 μL) was added to a 2-mL microfuge tube and hair samples were inserted for 2 hours. Hair samples were then rinsed with deionized water and dried under N2.
[…] […] The treatment was repeated for 7 times or 15 times, i.e., 4 hours and 8 hours of total exposure time, respectively.
The same multiple treatment as in Example 3 was applied with two commercially available hydrogen peroxide-based bleaching creams (SALLY HANSEN® bleach cream for face and SALLY HANSEN® extra strength bleach cream for face & body; Del Laboratories, Inc., Uniondale, N.Y.) and 6 wt % hydrogen peroxide (H2O2) in a similar pH 8, 20% urea, phosphate solution. […]

[3] = Single fiber tensile strength and bleaching start after two-step enzymatic application; conditions: two-step with buffer rinse
Method: as §1
In a two-step application, the hair strands are first treated with perhydrolase solutions to allow the enzyme to bind hair. The hair strands are then dried or rinsed with buffer and dried. The rinse step is intended to remove excess unbound enzyme from the hair. The hair strands are soaked in triacetin and H2O2 solutions. The application is repeated for multiple times.
One experiment was carried out with C277S-HC263 and untargeted T. maritima variant C277S using the following protocol: • 1. Enzyme solutions comprising 0.5 mg/mL enzyme in 50 mM phosphate buffer (pH 8) were made with or without 10 wt % urea. • 2. Seven (7) hair strands were soaked in 0.2 mL of an enzyme solution for 10 min and then dried under N2 without prior rinsing. • 3. The hair strands were then soaked in 0.2 mL of a pH 8 solution containing 100-mM triacetin and 250-mM H2O2 for 15 min, dried, then rinsed with DI water and then dried again. • 4. Steps 2-3 were repeated up to 15 times.
Another experiment was carried out with C277S-HC263 (SEQ ID NO: 288), CPAH-HC263 (SEQ ID NO: 294), CPAH-HC1010 (SEQ ID NO: 295) and untargeted C277S using the following protocol: • 1. Enzyme solutions comprising 1.0 mg/mL enzyme in 50 mM phosphate buffer (pH 6) were prepared. For solutions containing two enzymes, the concentration of each enzyme was approximately 0.5 mg/mL. • 2. Seven (7) hair strands were soaked in 0.2 mL of an enzyme solution for 10 min, rinsed with 50 mM phosphate buffer (pH 6), and then dried under N2. • 3. The dried hair strands were then soaked into 0.2 mL of 50 mM phosphate buffer solution (pH 8) comprising 100 mM triacetin and 250 mM H2O2 for 15 min, dried, then rinsed with DI water and then dried again. • 4.

[4] = Impact of additives on perhydrolase activity, PAA indicator strip; type: biochemical; conditions: glycerin, ethanol, sorbitol, polyethylene glycol or propylene glycol additive
Method: A peracetic acid indicator strip with detection range from 75 to 400 ppm was used to study the impact of additives on the perhydrolase activity of a perhydrolase. When the PAA concentration is at least 0.2 wt %, the dark color generated on the indicator strip will turn back to original white color over time.
A first solution (“solution A”) was prepared using 50 mM phosphate buffer (pH 8) and 10 wt % of one of the following additives: glycerin, ethanol, sorbitol, polyethylene glycol, propylene glycol in, respectively.
A second solution (“solution B”) was prepared by mixing 30% H2O2 and 50 mM phosphate buffer (pH 8) whereby the final concentration of H2O2 was 500 mM.
A third solution (“solution C”) was prepared comprising of CPAH-HC1010 (SEQ ID NO: 295) (0.2 mg/mL), triacetin (200 mM), 50 mM phosphate buffer (pH 8), and solution A (5 wt % additive). Immediately, added solution B in a 1:1 volume ratio. After 1 to 5 min, a 30-μL sample of the resulting solution was removed and immediately placed on a PAA indicator strip.
This process was repeated for each of the additives listed above.

CC(=O)OO [PAA, peracetic acid]
application at which the wool fibers were completely removed ([1]; solution (a): 0.6 wt % PAA, 0.5 wt % SLES): 19 application
application at which the wool fibers were completely removed ([1]; solution (b): 0.6 wt % PAA): 23 application
application at which the wool fibers were completely removed ([1]; solution (c): 0.2 wt % PAA, 0.5 wt % SLES): 24 application
Ten. @ Max ([2]; [PAA] 0.01 wt % then reductive solution (5 wt % potassium thioglycolate, pH 7.5), 20 min × 16, urea 10 wt %): 1.2 gf/den
Ten. @ Max ([2]; [PAA] 0.01 wt %, 20 min × 16, urea 10 wt %, pH 8): 1.7 gf/den
Ten. @ Max ([2]; [PAA] 0.02 wt % then reductive solution, 20 min × 16, urea 10 wt %): 1.6 gf/den
Ten. @ Max ([2]; [PAA] 0.02 wt %, 20 min × 16, urea 10 wt %, pH 8): 1.7 gf/den
Ten. @ Max ([2]; [PAA] 0.02 wt %, soaking 2 hr, pH 6): 1.7 gf/den
Ten. @ Max ([2]; [PAA] 0.02 wt %, soaking 2 hr, urea 0 wt %): 1.6 gf/den
Ten. @ Max ([2]; [PAA] 0.02 wt %, soaking 4 hr, urea 20 wt %): 1.7 gf/den
Ten. @ Max ([2]; [PAA] 0.05 wt % then reductive solution, 20 min × 16, urea 10 wt %): 0.8 gf/den
Ten. @ Max ([2]; [PAA] 0.05 wt %, 20 min × 16, urea 10 wt %, pH 8): 1.5 gf/den
Ten. @ Max ([2]; [PAA] 0.10 wt % then reductive solution, 20 min × 8, urea 10 wt %): 0.9 gf/den
Ten. @ Max ([2]; [PAA] 0.10 wt %, 20 min × 16, urea 10 wt %, pH 8): 1.1 gf/den
Ten. @ Max ([2]; [PAA] 0.20 wt % then reductive solution, 20 min × 8, urea 10 wt %): 0.7 gf/den
Ten. @ Max ([2]; [PAA] 0.20 wt %, 20 min × 16, urea 10 wt %, pH 8): 0.7 gf/den
Ten. @ Max ([2]; [PAA] 0.20 wt %, 30 min × 8, urea 20 wt %, pH 8): 1.3 gf/den
Ten. @ Max ([2]; [PAA] 0.20 wt %, 30 min × 16, urea 20 wt %, pH 8): 0.6 gf/den
Ten. @ Max ([2]; [PAA] 0.20 wt %, soaking 2 hr, pH 6): 1.5 gf/den
Ten. @ Max ([2]; [PAA] 0.20 wt %, soaking 2 hr, pH 8): 1.6 gf/den
Ten. @ Max ([2]; [PAA] 0.20 wt %, soaking 2 hr, urea 20 wt %): 1.6 gf/den
Ten. @ Max ([2]; [PAA] 0.20 wt %, soaking 4 hr, urea 20 wt %): 1.5 gf/den
Ten. @ Max ([2]; [PAA] 0.60 wt %, 30 min × 8, urea 20 wt %, pH 8): 0.4 gf/den
Ten. @ Max (hair integrity) ([2]; [PAA] 0.60 wt %, 30 min × 16, urea 20 wt %, pH 8): NA: Not applicable as all hair strains in sample 6 lost their integrity before the 16th application and could not be analyzed.
Ten. @ Max ([2]; [PAA] 0.60 wt %, soaking 2 hr, pH 6): 1.3 gf/den
Ten. @ Max ([2]; [PAA] 0.60 wt %, soaking 2 hr, pH 8): 1.3 gf/den
Ten. @ Max ([2]; [PAA] 0.60 wt %, soaking 2 hr, urea 0 wt %): 1.3 gf/den
Ten. @ Max ([2]; [PAA] 0.60 wt %, soaking 2 hr, urea 20 wt %): 1.4 gf/den
Ten. @ Max ([2]; [PAA] 0.60 wt %, soaking 4 hr, urea 0 wt %): 1.2 gf/den
Ten. @ Max ([2]; [PAA] 0.60 wt %, soaking 4 hr, urea 20 wt %): 0.8 gf/den
Ten. @ Max ([2]; [PAA] 2.00 wt %, soaking 2 hr, pH 6): 0.9 gf/den
Ten. @ Max ([2]; [PAA] 2.00 wt %, soaking 2 hr, pH 8): 0.8 gf/den
effective PAA concentration ([2]; longer soaking time and 20% urea): about 0.6 wt %
effective PAA concentration to achieve target hair weakening level ([2]; multiple treatments up to 16 times, 20 wt % urea): 0.2 wt %
PAA concentration needed to achieve the targeted hair weakening level ([2]; single application, 2 hours, pH 6 and pH 8): greater than 0.6 wt %

B1: CPAH-HC1010: fusion peptide C277S-HC1010 further comprising a D128G substitution (protein)
chain: MAFFDLPLEELKKYRPERYEEKDFDEFWEETLAESEKFPLDPVFERMESHLKTVEAYDVTFSGYRGQRIKGWLLVPKLEEEKLPCVVQYIGYNGGRGFPHDWLFWPSMGYICFVMDTRGQGSGWLKGGTPDYPEGPVDPQYPGFMTRGILDPRTYYYRRVFTDAVRAVEAAASFPQVDQERIVIAGGSQGGGIALAVSALSKKAKALLCDVPFLCHFRRAVQLVDTHPYAEITNFLKTHRDKEEIVFRTLSYFDGVNFAARAKIPALFSVGLMDNISPPSTVFAAYNYYAGPKEIRIYPYNNHEGGGSFQAVEQVKFLKKLFEKGGPGSGGAGSPGSAGGPGSAQSQLPDKHSGLHERAPQRYGSGTAEIQSSKNPNPHPQRSWTNGSGHNHMQERYTDPQHSPSVNGLGSGHDHKNQKETHQRHAASSHHHHHH
Bleaching Start ([3]; 1.0 mg/mL enzyme pH 6): 12th
Tenacity @ max ([3]; 1.0 mg/mL enzyme pH 6, 100 mM triacetin, 250 mM H2O2, up to 13 repeats): 1.2 gf/den
perhydrolase activity (PAA by indicator strip) in presence of additives [4]: ≥ 2000 ppm
